Laboratory results taken from patent publication US9944641B2, “Isoquinolinone derivatives useful in the treatment of cancer” (PIERRE FABRE MEDICAMENT, priority 2014, dated 2018).

Assays:
Format in all cases: binding
[1] = molecular target: T1, FLT3 wt (Homo sapiens, UniProt P36888); test: Lanthascreen TR-FRET enzymatic assay, FLT3; details: recombinant FLT3, 1 hour at 25° C., 1% DMSO; read-out: Enzymology (IC50) FLT3 wt
T1 construct: purchased Life Technologies PV3182
T1 sequence (P36888 564-993 limits assumed): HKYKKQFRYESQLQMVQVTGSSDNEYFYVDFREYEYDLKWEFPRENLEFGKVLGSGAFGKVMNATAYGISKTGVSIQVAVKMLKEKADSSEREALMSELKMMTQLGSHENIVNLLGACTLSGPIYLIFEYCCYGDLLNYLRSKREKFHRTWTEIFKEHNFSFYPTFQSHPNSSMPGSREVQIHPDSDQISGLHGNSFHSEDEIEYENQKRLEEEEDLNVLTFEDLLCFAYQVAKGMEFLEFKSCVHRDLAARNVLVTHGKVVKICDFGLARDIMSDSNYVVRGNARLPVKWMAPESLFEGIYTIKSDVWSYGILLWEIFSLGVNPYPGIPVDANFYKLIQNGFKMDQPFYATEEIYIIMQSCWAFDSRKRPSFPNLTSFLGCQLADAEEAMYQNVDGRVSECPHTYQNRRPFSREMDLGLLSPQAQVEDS
Method: (§1) Recombinant FLT3 (#PV3182), JAK2 (#PV4210) and JAK3 (#PV3855) enzymes were purchased from Life Technologies. FLT3-ITD (#0778-0000-1) and FLT3^D835Y (#14-610) were respectively purchased from Proquinase and Merck Millipore.
(§2) The assays were conducted in 384-well plates based on Life Technologies Lanthascreen® TR-FRET methodologies.
FLT3 assays: 15 nM of FLT3, 3 nM of the 236 kinase tracker (Life Technologies #PV5592) and 6 nM of the Europium-tagged anti-His Lanthascreen® antibody are mixed into 15 μL total volume reaction mixture.
(§3) IC50s were determined from a 8-point dose-response curve spanning a >1000 fold concentration range using a 10 mM compound solution stock into pure DMSO (Sigma #D8418). The overall DMSO concentrations of tested solutions were 1%.
(§4) IC50s were generated with the software Prism (Graphpad).

[2] = molecular target: T2, JAK3 (Homo sapiens, UniProt P52333); test: Lanthascreen TR-FRET enzymatic assay, JAK3; details: recombinant JAK3, 1 hour at 25° C., 1% DMSO; read-out: Enzymology (IC50) JAK3
T2 construct: purchased Life Technologies PV3855
T2 sequence (P52333 1-1124): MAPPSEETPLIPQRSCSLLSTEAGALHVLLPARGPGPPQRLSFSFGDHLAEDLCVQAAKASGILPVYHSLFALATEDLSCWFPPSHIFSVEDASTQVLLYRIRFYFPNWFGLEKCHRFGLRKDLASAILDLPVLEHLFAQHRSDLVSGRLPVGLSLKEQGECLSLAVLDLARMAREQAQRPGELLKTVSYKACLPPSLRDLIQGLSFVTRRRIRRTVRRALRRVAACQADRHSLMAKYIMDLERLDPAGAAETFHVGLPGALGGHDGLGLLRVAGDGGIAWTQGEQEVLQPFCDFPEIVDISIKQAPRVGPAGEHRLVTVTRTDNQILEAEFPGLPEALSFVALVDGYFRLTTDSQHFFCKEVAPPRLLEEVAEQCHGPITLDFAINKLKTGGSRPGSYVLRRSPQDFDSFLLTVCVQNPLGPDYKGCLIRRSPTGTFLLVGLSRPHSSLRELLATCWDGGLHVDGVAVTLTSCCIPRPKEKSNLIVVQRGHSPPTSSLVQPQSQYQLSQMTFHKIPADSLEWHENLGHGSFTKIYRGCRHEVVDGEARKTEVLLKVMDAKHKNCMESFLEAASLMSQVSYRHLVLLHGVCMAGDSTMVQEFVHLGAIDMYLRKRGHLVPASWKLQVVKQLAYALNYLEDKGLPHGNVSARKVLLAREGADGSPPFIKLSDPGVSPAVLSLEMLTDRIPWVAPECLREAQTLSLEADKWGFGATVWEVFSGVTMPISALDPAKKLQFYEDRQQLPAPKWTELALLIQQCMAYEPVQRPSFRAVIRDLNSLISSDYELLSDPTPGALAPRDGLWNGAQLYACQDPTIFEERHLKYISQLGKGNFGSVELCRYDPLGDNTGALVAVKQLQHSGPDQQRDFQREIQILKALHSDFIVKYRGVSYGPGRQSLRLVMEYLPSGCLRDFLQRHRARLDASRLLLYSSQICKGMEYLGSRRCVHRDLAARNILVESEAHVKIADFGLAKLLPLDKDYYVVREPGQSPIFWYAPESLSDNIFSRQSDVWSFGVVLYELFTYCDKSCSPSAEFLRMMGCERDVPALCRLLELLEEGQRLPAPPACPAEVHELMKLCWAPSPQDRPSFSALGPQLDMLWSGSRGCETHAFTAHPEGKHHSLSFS
Method: as §1, §2
JAK3 assays: 15 nM of […], 3 nM of the 236 kinase tracker (Life Technologies #PV5592) and 6 nM of the Europium-tagged anti-GST Lanthascreen® antibody are mixed into 15 μL total volume reaction mixture.
as §3, §4

[3] = molecular target: T3, JAK2 (Homo sapiens, UniProt O60674); test: Lanthascreen TR-FRET enzymatic assay, JAK2; details: recombinant JAK2, 1 hour at 25° C., 1% DMSO; read-out: Enzymology (IC50) JAK2
T3 construct: purchased Life Technologies PV4210
T3 sequence (O60674 whole entry): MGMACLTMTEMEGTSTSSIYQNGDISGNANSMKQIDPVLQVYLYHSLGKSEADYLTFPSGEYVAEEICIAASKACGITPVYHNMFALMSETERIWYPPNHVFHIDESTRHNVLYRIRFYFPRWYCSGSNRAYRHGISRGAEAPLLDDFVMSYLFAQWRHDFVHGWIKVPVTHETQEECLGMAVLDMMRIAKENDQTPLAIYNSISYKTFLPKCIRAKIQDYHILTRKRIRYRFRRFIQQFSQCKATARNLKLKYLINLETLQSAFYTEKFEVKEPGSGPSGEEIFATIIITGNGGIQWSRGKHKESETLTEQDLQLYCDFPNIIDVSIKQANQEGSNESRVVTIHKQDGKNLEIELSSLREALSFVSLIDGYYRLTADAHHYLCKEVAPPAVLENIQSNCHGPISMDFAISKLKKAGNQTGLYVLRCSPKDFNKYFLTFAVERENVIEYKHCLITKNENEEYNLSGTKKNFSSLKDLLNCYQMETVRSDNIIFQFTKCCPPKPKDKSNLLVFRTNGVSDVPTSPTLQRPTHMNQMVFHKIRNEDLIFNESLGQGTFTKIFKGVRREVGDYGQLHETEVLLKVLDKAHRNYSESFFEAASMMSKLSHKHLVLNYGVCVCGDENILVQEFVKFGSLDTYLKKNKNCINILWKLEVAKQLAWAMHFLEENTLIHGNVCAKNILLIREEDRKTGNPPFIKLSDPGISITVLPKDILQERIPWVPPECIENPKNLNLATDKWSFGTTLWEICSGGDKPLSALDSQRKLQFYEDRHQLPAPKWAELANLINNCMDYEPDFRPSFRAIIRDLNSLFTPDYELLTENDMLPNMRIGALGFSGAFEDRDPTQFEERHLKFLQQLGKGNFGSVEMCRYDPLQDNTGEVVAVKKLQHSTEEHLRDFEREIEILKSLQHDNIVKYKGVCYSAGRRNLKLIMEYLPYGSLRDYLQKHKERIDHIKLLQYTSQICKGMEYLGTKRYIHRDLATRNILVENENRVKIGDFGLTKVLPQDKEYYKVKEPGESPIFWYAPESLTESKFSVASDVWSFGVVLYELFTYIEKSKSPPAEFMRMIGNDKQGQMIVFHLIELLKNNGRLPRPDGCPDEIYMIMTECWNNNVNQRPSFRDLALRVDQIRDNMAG
Method: as §1, §2
JAK2 assays: 15 nM of JAK2, 150 nM of the 236 kinase tracker (Life Technologies #PV5592) and 6 nM of the Europium-tagged anti-GST Lanthascreen® antibody are mixed into 15 μL total volume reaction mixture.
as §3, §4

Row | IC50 [1] | IC50 [2] | IC50 [3] | SMILES
1 | 0.1 to 1 µM | 0.1 to 1 µM | 0.1 to 1 µM | COc1cc2c(cc1N)c(=O)n(C)c1cnc(Nc3cc(N)cc(F)c3)nc21 [Compound C26, 8-amino-2-((3-amino-5-fluorophenyl)amino)-9-methoxy-5-methylpyrimido [5,4-c]isoquinolin-6(5H)-one]
2 | 0.025 to 0.1 µM | 0.025 to 0.1 µM | 0.1 to 1 µM | COc1cc2c(cc1N)c(=O)n(C)c1cnc(Nc3ccc(N4CCN(C)CC4)cc3)nc21 [Compound C10, 8-amino-9-methoxy-5-methyl-2-((4-(4-methylpiperazin-1-yl)phenyl)amino) pyrimido[5,4-c]isoquinolin-6(5H)-one]
3 | 0.025 to 0.1 µM | 0.025 to 0.1 µM | 0.1 to 1 µM | CN1CCN(c2cccc(Nc3ncc4c(n3)c3ccc(N)cc3c(=O)n4C)c2)CC1 [Compound C6, 8-amino-5-methyl-2-((3-(4-methylpiperazin-1-yl)phenyl)amino)pyrimido[5,4-c]isoquinolin-6(5H)-one]
4 | 0.1 to 1 µM | 0.1 to 1 µM | 0.1 to 1 µM | COc1cc2c(cc1N)c(=O)n(C)c1cnc(Nc3ccc(F)c(N)c3)nc21 [Compound C28, 8-amino-2-((3-amino-4-fluorophenyl)amino)-9-methoxy-5-methylpyrimido [5,4-c]isoquinolin-6(5H)-one]
5 | 0.1 to 1 µM | 0.025 to 0.1 µM | 0.1 to 1 µM | Cn1c(=O)c2cc(N)ccc2c2nc(Nc3ccc(F)c(N)c3)ncc21 [Compound C22, 8-amino-2-((3-amino-4-fluorophenyl)amino)-5-methylpyrimido[5,4-c]isoquinolin-6(5H)-one]
6 | 0.1 to 1 µM | 0.1 to 1 µM | 0.1 to 1 µM | COc1cc2c(cc1N)c(=O)n(C)c1cnc(Nc3ccc(OCCN4CCCC4)cc3)nc21 [Compound C42, 8-amino-9-methoxy-5-methyl-2-((4-(2-(pyrrolidin-1-yl)ethoxy)phenyl)amino) pyrimido[5,4-c]isoquinolin-6(5H)-one]
7 | 0.025 to 0.1 µM | 0.1 to 1 µM | 0.1 to 1 µM | Cn1c(=O)c2cc(N)ccc2c2nc(Nc3ccc(OCCN4CCCC4)cc3)ncc21 [Compound C34, 8-amino-5-methyl-2-((4-(2-(pyrrolidin-1-yl)ethoxy)phenyl)amino)pyrimido[5,4-c]isoquinolin-6(5H)-one]
8 | 0.025 to 0.1 µM | 0.025 to 0.1 µM | 0.025 to 0.1 µM | Cn1c(=O)c2cc(N)ccc2c2nc(Nc3cccc(N)c3)ncc21 [Compound C2, 8-amino-2-((3-aminophenyl)amino)-5-methylpyrimido[5,4-c]isoquinolin-6(5H)-one]
9 | 0.025 to 0.1 µM | 0.025 to 0.1 µM | 0.1 to 1 µM | CN1CCN(c2ccc(Nc3ncc4c(n3)c3ccc(N)cc3c(=O)n4C)cc2)CC1 [Compound C4, 8-amino-5-methyl-2-((4-(4-methylpiperazin-1-yl)phenyl)amino)pyrimido[5,4-c]isoquinolin-6(5H)-one]
